Results from patent US9549906B2, “Compositions and methods for treatment of ocular inflammation and/or pain” (priority 2013, dated 2017).
“Also recorded” adds a separate entry of the source.

Key:
[1] = test system: endotoxin-induced uveitis (EIU) model; experiment: Endotoxin-induced uveitis (EIU) in rats, intravital microscopy of leukocyte-endothelial adhesion; assay type: in vivo, male Lewis rats
Description: The endotoxin-induced uveitis (EIU) model is a widely used animal model of human bacterially-derived uveitis, involving inflammation of the uveal tract. The uveal tract comprises the middle layer of the eye, including the iris, ciliary body and […].
EIU was induced in male Lewis rats by intravitreal injection of 100 ng of lipopolysaccharide (LPS, Escherichia coli) in saline. Treatments of the cannabinoid 2 receptor (CB2R) agonist, HU-433 were administered, in the presence and absence of the selective antagonist, AM630. Cannabinoid treatments involved intravenous (i.v.) HU-433 (0.001-1 mg/kg), AM630 (2.5 mg/kg i.v.) and AM630+HU-433, administered 15 minutes after intravitreal injection of LPS. Intravital microscopy (IVM) was used to observe leukocyte-endothelial adhesion each hour after induction of EIU for a duration of 6 hours.
Data in FIG. 1 was collected from experiments using an animal model of ocular inflammation called endotoxin-induced uveitis. […] The level of inflammation is quantified by counting the number of adherent leukocytes in the iris microcirculation. Leukocytes must adhere to the microvasculature for more than 30 s (measured as adherent leukocytes per mm^2). Imaging was conducted in a minimum of 4 quadrants within the eye, 4 vessels each quadrant, 6 hours after inflammation was induced.
The strain of animals chosen for these experiments was based on preliminary testing conducted and published literature (see, for example: Toguri et al., 2014). The strain of mice chosen was BALB/c and Lewis rats were used. Animals were anesthetised prior to induction of uveitis. Mice were anesthetized with 5% isoflurane in 100% oxygen. Rats were anesthetized with 65 mg·kg^−1 of sodium pentobarbital. Depth of anesthesia was monitored via toe pinch test. The head of the animal was immobilized, and the sclera of the left eye was punctured with a 30-gauge needle at the dorsonasal quadrant at approximately the level of the equator. Mice received a total of 250 ng of LPS (E. coli 026:B6; Sigma-Aldrich, Oakville, ON, Canada) in 2 μl of sterile 0.9% saline. Rats received a total of 100 ng of LPS in 5 μl of sterile 0.9% saline. Intravitreal injections were made under microscopic control with a Hamilton syringe (Hamilton Company, Reno, Nev., USA), with a 30 G1/6 needle. To avoid touching the lens or causing any damage to the eye, the tip of the needle was directed towards the posterior pole and only the bevelled tip (2-3 mm) entered the vitreal cavity. The needle was held in place after injection for 5 seconds to avoid leakage of the LPS from the site of injection (sclerostomy). Sclerostomy was closed by tissue adhesive to prevent any leakage. Animals with bleeding or swelling post injection were excluded from the study.

[2] = test system: corneal hypersensitivity to capsaicin; experiment: Corneal hyperalgesia model (silver nitrate cauterization), blinks to topical 1 μM capsaicin; assay type: in vivo, murine
From the text: The chemical cauterization model of corneal inflammation and hyperalgesia is an established model to look at corneal sensitization and pain. Chemical cauterization of the murine cornea using topical silver nitrate produces non-specific inflammation followed by chronic behavioral sensitization to subsequent chemical stimuli (modified from Wenk & Honda, 2003).
The corneal reflex blink test provides a behavioral assessment of corneal sensitization and hyperalgesia (decreased pain threshold). The hyperalgesia (defined as increased responsiveness to painful stimuli) is gauged by quantifying the number and frequency of a protective blinking response in the treated eye (stimulus-induced blinking) relative to control non-sensitized eyes (Wenk and Honda 2003). Anti-inflammatory agents and agents that act at targets on nociceptive nerves can reduce development of corneal sensitization and hyperalgesic activity (reduced protective blinking response in response to noxious irritant).
Using a model characterized by Wenk & Honda, 2003, chemical cauterization using silver nitrate application to the cornea was used to create a corneal hypersensitivity model. Hypersensitivity was determined by assessing blinks to an ocular topical application of 1 μM capsaicin. The blink response is one measure of the level of corneal hyperalgesia. Increased blinking in response to capsaicin in a cauterized eye indicates a higher level of pain (FIG. 9).
In a model of corneal hyperalgesia, chemical cauterization of the cornea produces corneal epithelial damage, corneal edema and inflammation. […] The effect of repeated dosing with the CB2 allosteric modulator, CBD-DMH, or the cannabinoid Δ^9THC that acts as an agonist at CB1 and CB2 receptors, was tested to determine if these agents could prevent the development of hyperalgesia. Animals were videoed before and after capsaicin administration using a handheld device and video images were analyzed off-line by an observer blinded to the treatment. […]

[3] = target: T1, CB2 (Homo sapiens, UniProt P34972); experiment: In-Cell western, PLCβ3 phosphorylation (Gαq) in HEK 293A cells transfected with hCB2; assay type: cell-based; parameters: expressed in transfected cells; details: HEK293-A; percentage of the maximal response to the agonist CP 55,940; read-out: Emax (%) ± SEM, PLCβ3 (Gαq)
Description: HEK cells were maintained at 37° C., 5% CO2 in Dulbecco's Modified Eagle's Medium (DMEM) supplemented with 10% Fetal Bovine Serum (FBS) and 10^4 U·mL^−1 Pen/Strep.
For In-Cell™ western analyses, cells were fixed for 10 min at room temperature with 4% paraformaldehyde and washed three times with 0.1 M PBS for 5 min each. Cells were incubated with blocking solution (0.1 M PBS, 5% normal goat serum, 0.3% TritonX-100, in dH2O) for 1 h at room temperature. Cells were treated with primary antibody diluted in antibody dilution buffer [0.1 M PBS, 1% (w/v) BSA, 0.3% TritonX-100, in dH2O] overnight at 4° C. Primary antibody solutions were: pERK1/2(Tyr205/185) (1:200), ERK1/2 (1:200), pPLCβ3(S537) (1:500), PLCβ3 (1:1000), or β-actin (1:2000; Santa Cruz Biotechnology). Cells were washed three times with 0.1 M PBS for 5 min each. Cells were then incubated in IR^CW800dye (1:500; Rockland Immunochemicals, Gilbertsville, Pa., USA) for 1 h at room temperature. Cells were washed three times with 0.1 M PBS for 5 min each. Cells were allowed to air-dry overnight.
In-Cell™ data were collected using the Odyssey Imaging system and software (version 3.0; Li-Cor, Lincoln, Nebr., USA).
Goodness of fit to non-linear regression models was tested in GraphPad (v. 5.0, Prism). […]

[4] = cited from earlier work; for stability: acidic solutions, heat, air and light
[5] = target: T1, CB2; experiment: In vitro CB2-dependent G protein signalling, overall conclusion (ERK, PLCβ3, cAMP); assay type: cell-based; parameters: expressed in transfected cells; host or cells: HEK 293A cells (transient transfection)
Description: Following 30 min treatment cells were lysed and cAMP activity was measured at 405 nm (RLU, relative light units). Concentration-response curves were fit using non-linear regression analysis (GraphPad Prism, version 5.0).

[6] = test system: dispase-induced PVR; experiment: Dispase model of proliferative vitreoretinopathy (PVR): clinical score, histopathology, Iba1 microglia; details: 10 mg/kg i.p. daily for 7 days
[7] = test system: endotoxin-induced uveitis (EIU) model; experiment: LPS-induced uveitis (EIU) in mice, intravital microscopy of adherent leukocytes; assay type: in vivo, BALB/c Mice; details: CBD-DMH 10 mg/kg i.v. once right after intravitreal LPS; IVM at 5 hours
Description: Two different EIU experimental groups were examined in BALB/c Mice: • Group (A): Intravital microscopy (IVM) at 5 hours after intravitreal injection of saline (control) • Group (B): IVM at 5 hours after induction of EIU and i.v. administration of drug vehicle control (1 time, 0.2 mL 30% ethanol in saline right after intravitreal injection) • Group (C): IVM at 5 hours after induction of EIU and i.v. administration of cannabinoid (1 time, 0.2 mL 10 mg/kg CBD-DMH right after intravitreal injection).
The strain of animals chosen for these experiments was based on preliminary testing conducted and published literature (see, for example: Toguri et al., 2014). […] Depth of anesthesia was monitored via toe pinch test. […]
The technique of intravital microscopy (IVM) was used for in vivo investigation of leukocyte recruitment. The intravital fluorescence video microscope was focused on the iridial microcirculation, which allowed for imaging of the leukocyte-endothelial interactions. […] In each video, leukocyte recruitment was observed and recorded for 30 seconds each. […]
Several videos of each quadrant were recorded for 30 seconds. Leukocyte adhesion was the parameter analyzed. […] The number of adherent leukocytes within each vessel segment was calculated by measuring the diameter and length of vessel segment studied, assuming a cylindrical geometry of blood vessel. […]

[8] = target: T1, CB2; details: cited from earlier work
[9] = test system: experimental models of sepsis; experiment: Experimental models of sepsis; assay type: in vivo

T1 sequence (P34972 whole entry): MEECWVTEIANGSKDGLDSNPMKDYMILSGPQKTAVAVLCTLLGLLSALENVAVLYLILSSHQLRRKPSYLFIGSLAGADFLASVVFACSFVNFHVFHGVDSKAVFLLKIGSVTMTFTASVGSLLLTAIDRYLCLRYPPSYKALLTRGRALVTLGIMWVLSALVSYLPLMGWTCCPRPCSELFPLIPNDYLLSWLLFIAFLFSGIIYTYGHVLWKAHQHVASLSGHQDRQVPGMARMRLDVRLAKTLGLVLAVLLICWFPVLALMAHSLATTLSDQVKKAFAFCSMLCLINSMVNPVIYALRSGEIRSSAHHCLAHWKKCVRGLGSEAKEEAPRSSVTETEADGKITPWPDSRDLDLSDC

**Q.** For `COc1ccc(C(=O)c2c(C)n(CCN3CCOCC3)c3cc(I)ccc23)cc1` [AM630, reference compound], which “number of adherent leukocytes to the microvasculature, antagonist alone” value ([1]; AM630 2.5 mg/kg i.v. alone, p<0.01) is on record?
**A.** significant increase

**Q.** And the “effect of CB2R antagonist pre-treatment on the agonist's decrease in leukocyte adhesion” value ([1]; AM630 2.5 mg/kg i.v. prior to CB2R agonist in EIU)?
**A.** abolished

**Q.** For `C=C1CC/C=C(\C)CC[C@@H]2[C@@H]1CC2(C)C` [Beta-C, β-caryophyllene], which corneal hyperalgesia ([2]; Beta-C, dose not given) is on record?
**A.** appeared to also produce a reduction in hyperalgesia

**Q.** What does the source list for `C=C(C)[C@@H]1CCC(C)=C[C@H]1c1c(O)cc(CCCCC)cc1O` [CBD, cannabidiol]?
**A.** Emax [3]: 51.7 ± 7.04%; stability [4]: unstable in acidic solutions and when exposed to heat, air and light; water solubility [4]: poorly water-soluble; mode of action on CB2-dependent G protein signalling [5]: partial agonist

**Q.** Which “clinical score of PVR (scale 0-5)” value [6] does the source give for `C=C(C)[C@@H]1CCC(C)=C[C@H]1c1c(O)cc(C(C)(C)CCCCCC)cc1O` [CBD-DMH, cannabidiol-dimethylheptyl] here?
**A.** significantly decreased

**Q.** What about the “histological score of PVR (scale 0-4)” value [6] of the same compound?
**A.** significantly decreased

**Q.** What about the “number of adherent leukocytes” value [7] of the same compound?
**A.** decrease in number of adherent leukocytes

**Q.** And the “mean number of blinks for 1 minute to 1 μM capsaicin” value ([2]; 6 hours post corneal insult, 3 doses topical 5% CBD-DMH, 1-way ANOVA p<0.05)?
**A.** statistically significant decrease in blinks compared to untreated and vehicle treated eyes

**Q.** And the “corneal hypersensitivity (blinks over 1 minute to 1 μM capsaicin)” value ([2]; unilateral cauterized eye, 3 doses ocular topical 5% CBD-DMH)?
**A.** eliminates this hypersensitivity; also recorded: reduces hypersensitivity in a comparable matter to ocular topical NSAID; also recorded: eliminated hypersensitivity to capsaicin

**Q.** And the “potency relative to CBD” value ([8]; analgesic and anti-inflammatory effects in animal models)?
**A.** more than 10 fold

**Q.** And the psychoactivity [8]?
**A.** non-psychotropic

**Q.** And the “activation of CB2 in the absence of the orthosteric agonist CP55940” value [5]?
**A.** does not activate CB2

**Q.** And the “effect on potency and efficacy of the orthosteric CB2 agonist CP55940” value [5]?
**A.** enhances the potency and efficacy

**Q.** And the “mode of action on CB2-dependent G protein signalling” value [5]?
**A.** positive allosteric modulator

**Q.** Which “number of adherent leukocytes in the iris microcirculation” value ([1]; HU-433 0.1 mg/kg i.v., 6 hours after intravitreal LPS, 0.1 mg/kg) does the source give for `CCCCCCC(C)(C)c1cc(OC)c(C2C=C(CO)C3CC2C3(C)C)c(OC)c1` (stereo not shown) [HU-433] here?
**A.** significantly (p<0.05) reduce; also recorded: fewer adherent leukocytes

**Q.** And the “leukocyte-endothelial adhesion (inflammation)” value ([1]; HU-433 i.v. 0.01 and 0.1 mg/kg, 6 hours after induction of EIU)?
**A.** significantly (p<0.01) reduced

**Q.** And the “local release of inflammatory mediators” value ([1]; acute EIU)?
**A.** decreases local release of inflammatory mediators

**Q.** What about the “potency in reducing ocular inflammation relative to HU-308” value ([1]; experimental uveitis) of the same compound?
**A.** more potent than HU-308

**Q.** What about the psychoactivity [8] of the same compound?
**A.** no psychoactivity

**Q.** What about the “potency relative to HU-308” value ([8]; in vitro and in vivo systems) of the same compound?
**A.** 2-3 orders of magnitude

**Q.** What about the “potency in mitigating inflammation relative to HU-308” value [9] of the same compound?
**A.** more potent than HU-308

**Q.** For `CCCCCc1cc(O)c2c(c1)OC(C)(C)[C@@H]1CCC(C)=C[C@@H]21` [THC], which stability [4] is on record?
**A.** unstable in acidic solutions and when exposed to heat, air and light
